{"source": "patent US9999222B2", "about": "“Herbicidal combination comprising azines” (BASF SE, priority 2014, dated 2018)", "assay_in_all_cases": "Greenhouse test, pre-emergence treatment", "key": {"POLCO": {"system": "POLCO", "type": "in vivo, Polygonum convolvulus", "conditions": "pre-emergence", "procedure,_shortened": "(§1)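 Damage was rated on a 0-100 scale, with 100 meaning no emergence or full destruction of aerial parts. Observed combination effects were set against the additive Colby expectation E=X+Y−(X·Y/100). Spray liquor was water-based, from 10% emulsion concentrates, applied pre-emergence right after sowing in loamy sand (about 3.0% humus). Plants were held at 10-25 °C or 20-35 °C for 2 to 4 weeks.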"}, "COMBE": {"system": "COMBE", "type": "in vivo, Commelina benghalensis", "conditions": "Commelina benghalensis, 480 h, pre-emergence, read-out: observed % activity 20 DAT", "procedure,_shortened": "as §1"}, "ALOMY": {"system": "ALOMY", "type": "in vivo, Alopecurus myosuroides", "conditions": "pre-emergence", "procedure,_shortened": "as §1"}, "VIOAR": {"system": "VIOAR", "type": "in vivo, Viola arvensis", "conditions": "use rate 500 g ai/ha, 20 DAT", "procedure,_shortened": "as §1"}, "IPOHE": {"system": "IPOHE", "type": "in vivo, Ipomoea hederacea", "conditions": "Ipomoea hederacea, 480 h, read-out: observed % activity 20 DAT", "procedure,_shortened": "as §1"}, "GERPU": {"system": "GERPU", "type": "in vivo, Geranium pusillum", "conditions": "Geranium pusillum, pre-emergence, 480 h, pre-emergence, read-out: observed % activity 20 DAT", "procedure,_shortened": "as §1"}, "LOLMU": {"system": "LOLMU", "type": "in vivo, Lolium multiflorum", "conditions": "Lolium multiflorum, pre-emergence, 480 h, pre-emergence, read-out: observed % activity 20 DAT", "procedure,_shortened": "as §1"}, "PHACA": {"system": "PHACA", "type": "in vivo, Phalaris canariensis", "conditions": "Phalaris canariensis, pre-emergence, 480 h, pre-emergence, read-out: observed % activity 20 DAT", "procedure,_shortened": "as §1"}, "EPHHL": {"system": "EPHHL", "type": "in vivo, Euphorbia heterophylla", "conditions": "Euphorbia heterophylla, pre-emergence, 480 h, pre-emergence, 1000 g ai/ha; read-out: observed % activity 20 DAT", "procedure,_shortened": "as §1"}, "ECHCG": {"system": "ECHCG", "type": "in vivo, Echinocloa crus-galli", "conditions": "Echinochloa crus-galli, 480 h, read-out: observed % activity 20 DAT", "procedure,_shortened": "as §1"}, "BRADC": {"system": "BRADC", "type": "in vivo, Brachiaria decumbens", "conditions": "Urochloa decumbens, pre-emergence, 480 h", "procedure,_shortened": "as §1"}, "SETFA": {"system": "SETFA", "type": "in vivo, Setaria faberi", "procedure,_shortened": "as §1"}, "KCHSC": {"system": "KCHSC", "type": "in vivo, Kochia scoparia", "conditions": "Bassia scoparia, 480 h, pre-emergence, read-out: observed % activity 20 DAT", "procedure,_shortened": "as §1"}, "GALAP": {"system": "GALAP", "type": "in vivo, Galium aparine", "conditions": "Galium aparine, pre-emergence, 480 h, 500 g ai/ha, 20 DAT; read-out: observed % activity", "procedure,_shortened": "as §1"}, "AVEFA": {"system": "AVEFA", "type": "in vivo, Avena fatua", "conditions": "pre-emergence", "procedure,_shortened": "as §1"}}, "note": "Several values for one entry are separate records, joined by “and”; a condition that tells them apart may be missing. Identical values can stand only once. Like-named read-outs stand apart in the source and are kept apart here.", "data": [{"smiles": "CCC(CC)Nc1c([N+](=O)[O-])cc(C)c(C)c1[N+](=O)[O-]", "note": "[Pendimethalin, pendimethalin]", "values": [{"measurement": "pest or weed control at 500 g/ha", "setting": "POLCO; Fallopia convolvulus, 480 h, use rate 500 g ai/ha, 20 DAT, read-out: observed % activity 20 DAT", "value": 60, "unit": "%"}, {"measurement": "inhibition at 250 g/ha", "setting": "POLCO; Fallopia convolvulus, 480 h, 250 g ai/ha, 20 DAT, read-out: observed % activity", "value": 50, "unit": "%"}, {"measurement": "inhibition at 500 g/ha", "setting": "POLCO; Fallopia convolvulus, 480 h, 500 g ai/ha, 20 DAT, read-out: observed % activity", "value": 60, "unit": "%"}, {"measurement": "inhibition at 125 g/ha", "setting": "POLCO; Fallopia convolvulus, 480 h, use rate 125 g ai/ha, read-out: observed % activity 20 DAT", "value": 0, "unit": "%"}, {"measurement": "inhibition at 500 g/ha", "setting": "POLCO; Fallopia convolvulus, 480 h, use rate 500 g ai/ha, read-out: observed % activity 20 DAT", "value": 60, "unit": "%"}, {"measurement": "observed % activity 20 DAT", "setting": "POLCO; use rate 500 g ai/ha", "value": 45, "unit": "%"}, {"measurement": "pest or weed control at 500 g/ha", "setting": "COMBE; 500 g ai/ha", "value": 10, "unit": "%"}, {"measurement": "pest or weed control at 1000 g/ha", "setting": "COMBE; 1000 g ai/ha", "value": 40, "unit": "%"}, {"measurement": "inhibition at 250 g/ha", "setting": "ALOMY; Alopecurus myosuroides, 480 h, 250 g ai/ha, 20 DAT, read-out: observed % activity", "value": 60, "unit": "%"}, {"measurement": "inhibition at 500 g/ha", "setting": "ALOMY; Alopecurus myosuroides, 480 h, 500 g ai/ha, 20 DAT, read-out: observed % activity", "value": 85, "unit": "%"}, {"measurement": "pest or weed control at 250 g/ha", "setting": "ALOMY; Alopecurus myosuroides, 480 h, 250 g ai/ha, read-out: observed % activity 20 DAT", "value": 45, "unit": "%"}, {"measurement": "pest or weed control at 500 g/ha", "setting": "ALOMY; Alopecurus myosuroides, 480 h, 500 g ai/ha, read-out: observed % activity 20 DAT", "value": 65, "unit": "%"}, {"measurement": "pest or weed control at 1000 g/ha", "setting": "ALOMY; Alopecurus myosuroides, 480 h, 1000 g ai/ha, read-out: observed % activity 20 DAT", "value": 80, "unit": "%"}, {"measurement": "inhibition at 125 g/ha", "setting": "ALOMY; Alopecurus myosuroides, 480 h, use rate 125 g ai/ha, read-out: observed % activity 20 DAT", "value": 55, "unit": "%"}, {"measurement": "pest or weed control at 250 g/ha", "setting": "ALOMY; Alopecurus myosuroides, 480 h, use rate 250 g ai/ha, 20 DAT, read-out: observed % activity 20 DAT", "value": 15, "unit": "%"}, {"measurement": "pest or weed control at 1000 g/ha", "setting": "ALOMY; Alopecurus myosuroides, 480 h, use rate 1000 g ai/ha, 20 DAT, read-out: observed % activity 20 DAT", "value": 95, "unit": "%"}, {"measurement": "inhibition at 1000 g/ha", "setting": "ALOMY; Alopecurus myosuroides, 480 h, use rate 1000 g ai/ha, read-out: observed % activity 20 DAT", "value": 95, "unit": "%"}, {"measurement": "observed % activity 20 DAT", "setting": "ALOMY; use rate 500 g ai/ha", "value": "65% and 90%"}, {"measurement": "observed % activity 20 DAT", "setting": "ALOMY; use rate 1000 g ai/ha", "value": 75, "unit": "%"}, {"measurement": "observed % activity 20 DAT", "setting": "VIOAR", "value": 80, "unit": "%"}, {"measurement": "pest or weed control at 500 g/ha", "setting": "IPOHE; 500 g ai/ha", "value": 0, "unit": "%"}, {"measurement": "pest or weed control at 1000 g/ha", "setting": "IPOHE; 1000 g ai/ha", "value": 0, "unit": "%"}, {"measurement": "pest or weed control at 125 g/ha", "setting": "GERPU; use rate 125 g ai/ha, 20 DAT", "value": 90, "unit": "%"}, {"measurement": "inhibition at 125 g/ha", "setting": "GERPU; use rate 125 g ai/ha", "value": 70, "unit": "%"}, {"measurement": "inhibition at 250 g/ha", "setting": "GERPU; use rate 250 g ai/ha", "value": 90, "unit": "%"}, {"measurement": "pest or weed control at 500 g/ha", "setting": "GERPU; use rate 500 g ai/ha, 20 DAT", "value": 70, "unit": "%"}, {"measurement": "inhibition at 125 g/ha", "setting": "LOLMU; use rate 125 g ai/ha", "value": 0, "unit": "%"}, {"measurement": "inhibition at 250 g/ha", "setting": "LOLMU; use rate 250 g ai/ha", "value": 0, "unit": "%"}, {"measurement": "pest or weed control at 1000 g/ha", "setting": "LOLMU; use rate 1000 g ai/ha, 20 DAT", "value": 55, "unit": "%"}, {"measurement": "inhibition at 1000 g/ha", "setting": "LOLMU; use rate 1000 g ai/ha", "value": 55, "unit": "%"}, {"measurement": "pest or weed control at 250 g/ha", "setting": "PHACA; 250 g ai/ha", "value": 0, "unit": "%"}, {"measurement": "pest or weed control at 500 g/ha", "setting": "PHACA; 500 g ai/ha", "value": 45, "unit": "%"}, {"measurement": "inhibition at 125 g/ha", "setting": "PHACA; use rate 125 g ai/ha", "value": 35, "unit": "%"}, {"measurement": "pest or weed control at 250 g/ha", "setting": "PHACA; use rate 250 g ai/ha, 20 DAT", "value": 55, "unit": "%"}, {"measurement": "inhibition at 250 g/ha", "setting": "PHACA; use rate 250 g ai/ha", "value": 55, "unit": "%"}, {"measurement": "inhibition at 500 g/ha", "setting": "PHACA; use rate 500 g ai/ha", "value": 65, "unit": "%"}, {"measurement": "pest or weed control at 1000 g/ha", "setting": "EPHHL", "value": 55, "unit": "%"}, {"measurement": "inhibition at 125 g/ha", "setting": "ECHCG; use rate 125 g ai/ha", "value": 95, "unit": "%"}, {"measurement": "pest or weed control at 250 g/ha", "setting": "ECHCG; use rate 250 g ai/ha, 20 DAT", "value": 98, "unit": "%"}, {"measurement": "inhibition at 250 g/ha", "setting": "ECHCG; use rate 250 g ai/ha", "value": 98, "unit": "%"}, {"measurement": "inhibition at 500 g/ha", "setting": "BRADC; 500 g ai/ha, 20 DAT, read-out: observed % activity", "value": 75, "unit": "%"}, {"measurement": "pest or weed control at 250 g/ha", "setting": "BRADC; 250 g ai/ha, read-out: observed % activity 20 DAT", "value": 35, "unit": "%"}, {"measurement": "pest or weed control at 500 g/ha", "setting": "BRADC; 500 g ai/ha, read-out: observed % activity 20 DAT", "value": 55, "unit": "%"}, {"measurement": "inhibition at 125 g/ha", "setting": "SETFA; Setaria faberi, 480 h, use rate 125 g ai/ha, read-out: observed % activity 20 DAT", "value": 98, "unit": "%"}, {"measurement": "inhibition at 500 g/ha", "setting": "SETFA; Setaria faberi, 480 h, use rate 500 g ai/ha, read-out: observed % activity 20 DAT", "value": 98, "unit": "%"}, {"measurement": "observed % activity 20 DAT", "setting": "SETFA; use rate 500 g ai/ha, 20 DAT", "value": 98, "unit": "%"}, {"measurement": "pest or weed control at 500 g/ha", "setting": "KCHSC; use rate 500 g ai/ha, 20 DAT", "value": 80, "unit": "%"}, {"measurement": "inhibition at 125 g/ha", "setting": "KCHSC; use rate 125 g ai/ha", "value": 60, "unit": "%"}, {"measurement": "inhibition at 500 g/ha", "setting": "GALAP", "value": 30, "unit": "%"}, {"measurement": "inhibition at 500 g/ha", "setting": "AVEFA; Avena fatua, 480 h, 500 g ai/ha, 20 DAT, read-out: observed % activity", "value": 0, "unit": "%"}, {"measurement": "observed % activity 20 DAT", "setting": "AVEFA; 250 g ai/ha", "value": 0, "unit": "%"}]}]}
